Measurements as given in PubChem BioAssay AID1963849 (Molecular Pharmacology Branch, DTP, NCI, 2024).

Tested on: 299254-011-R-J1-PDC complex spheroid viability
Assay: Anticancer human tumor 299254-011-R-J1-PDC patient-derived melanoma cell line growth inhibition [POLQ]
Conditions: for IC50: curve of first compound; for viability, T/C: stronger effect = lower value
In short: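 Three-cell-type spheroids modelling solid tumor plus stroma served as the readout system; POL inhibitors were tested individually and in combination, concentration ranges set by clinical Cmax where known.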

[1] = second compound 0.0316 µM, first compound 0.0316 µM
[2] = second compound 0.0316 µM, first compound 0.1 µM
[3] = second compound 0.0316 µM, first compound 0.316 µM
[4] = second compound 0.0316 µM, first compound 1 µM
[5] = second compound 0.0316 µM, first compound 3.16 µM
[6] = second compound 0.0316 µM, first compound 10 µM
[7] = second compound 0.1 µM, first compound 0.0316 µM
[8] = second compound 0.1 µM, first compound 0.1 µM
[9] = second compound 0.1 µM, first compound 0.316 µM
[10] = second compound 0.1 µM, first compound 1 µM
[11] = second compound 0.1 µM, first compound 3.16 µM
[12] = second compound 0.1 µM, first compound 10 µM
[13] = second compound 0.316 µM, first compound 0.0316 µM
[14] = second compound 0.316 µM, first compound 0.1 µM
[15] = second compound 0.316 µM, first compound 0.316 µM
[16] = second compound 0.316 µM, first compound 1 µM
[17] = second compound 0.316 µM, first compound 3.16 µM
[18] = second compound 0.316 µM, first compound 10 µM
[19] = second compound 1 µM, first compound 0.0316 µM
[20] = second compound 1 µM, first compound 0.1 µM
[21] = second compound 1 µM, first compound 0.316 µM
[22] = second compound 1 µM, first compound 1 µM
[23] = second compound 1 µM, first compound 3.16 µM
[24] = second compound 1 µM, first compound 10 µM
[25] = second compound 3.16 µM, first compound 0.0316 µM
[26] = second compound 3.16 µM, first compound 0.1 µM
[27] = second compound 3.16 µM, first compound 0.316 µM
[28] = second compound 3.16 µM, first compound 1 µM
[29] = second compound 3.16 µM, first compound 3.16 µM
[30] = second compound 3.16 µM, first compound 10 µM
[31] = second compound 10 µM, first compound 0.0316 µM
[32] = second compound 10 µM, first compound 0.1 µM
[33] = second compound 10 µM, first compound 0.316 µM
[34] = second compound 10 µM, first compound 1 µM
[35] = second compound 10 µM, first compound 3.16 µM
[36] = second compound 10 µM, first compound 10 µM
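Note: spheroids exposed to drugs for one week before measurement.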
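Throughout, for viability, T/C: percent viability relative to DMSO vehicle control taken as 100%.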

O=C(c1cc(Cc2n[nH]c(=O)c3ccccc23)ccc1F)N1CCN(C(=O)C2CC2)CC1 + COC1C(OC(N)=O)C(O)C(Oc2ccc3c(O)c(NC(=O)c4ccc(O)c(CC=C(C)C)c4)c(=O)oc3c2C)OC1(C)C
IC50 (second compound 0.0316 µM): > 10 µM | IC50 (second compound 0.1 µM): > 10 µM | IC50 (second compound 0.316 µM): > 10 µM | IC50 (second compound 1 µM): > 10 µM | IC50 (second compound 3.16 µM): > 10 µM | IC50 (second compound 10 µM): > 10 µM | viability, T/C [1]: 129% | viability, T/C [2]: 114% | viability, T/C [3]: 114% | viability, T/C [4]: 122% | viability, T/C [5]: 116% | viability, T/C [6]: 101% | viability, T/C [7]: 107% | viability, T/C [8]: 113% | viability, T/C [9]: 117% | viability, T/C [10]: 129% | viability, T/C [11]: 131% | viability, T/C [12]: 93.6% | viability, T/C [13]: 116% | viability, T/C [14]: 110% | viability, T/C [15]: 119% | viability, T/C [16]: 135% | viability, T/C [17]: 106% | viability, T/C [18]: 99.5% | viability, T/C [19]: 128% | viability, T/C [20]: 122% | viability, T/C [21]: 121% | viability, T/C [22]: 127% | viability, T/C [23]: 134% | viability, T/C [24]: 98.2% | viability, T/C [25]: 144% | viability, T/C [26]: 114% | viability, T/C [27]: 109% | viability, T/C [28]: 121% | viability, T/C [29]: 117% | viability, T/C [30]: 98.9% | viability, T/C [31]: 128% | viability, T/C [32]: 119% | viability, T/C [33]: 120% | viability, T/C [34]: 128% | viability, T/C [35]: 108% | viability, T/C [36]: 95.2%

CC(C)n1c(=O)n(C)c2cnc3cc(F)c(-c4ccc(OCCCN5CCCCC5)nc4)cc3c21 + COC1C(OC(N)=O)C(O)C(Oc2ccc3c(O)c(NC(=O)c4ccc(O)c(CC=C(C)C)c4)c(=O)oc3c2C)OC1(C)C
IC50 (second compound 0.0316 µM): > 10 µM | IC50 (second compound 0.1 µM): > 10 µM | IC50 (second compound 0.316 µM): > 10 µM | IC50 (second compound 1 µM): > 10 µM | IC50 (second compound 3.16 µM): > 10 µM | IC50 (second compound 10 µM): > 10 µM | viability, T/C [1]: 145% | viability, T/C [2]: 129% | viability, T/C [3]: 109% | viability, T/C [4]: 126% | viability, T/C [5]: 112% | viability, T/C [6]: 111% | viability, T/C [7]: 113% | viability, T/C [8]: 127% | viability, T/C [9]: 128% | viability, T/C [10]: 131% | viability, T/C [11]: 112% | viability, T/C [12]: 91.2% | viability, T/C [13]: 121% | viability, T/C [14]: 147% | viability, T/C [15]: 117% | viability, T/C [16]: 121% | viability, T/C [17]: 114% | viability, T/C [18]: 110% | viability, T/C [19]: 113% | viability, T/C [20]: 111% | viability, T/C [21]: 132% | viability, T/C [22]: 107% | viability, T/C [23]: 112% | viability, T/C [24]: 82.9% | viability, T/C [25]: 112% | viability, T/C [26]: 130% | viability, T/C [27]: 116% | viability, T/C [28]: 118% | viability, T/C [29]: 123% | viability, T/C [30]: 102% | viability, T/C [31]: 126% | viability, T/C [32]: 128% | viability, T/C [33]: 139% | viability, T/C [34]: 128% | viability, T/C [35]: 135% | viability, T/C [36]: 115%
